Assay [1] deals with T1, GPR3 (Homo sapiens, UniProt P46089). In words: cryo-EM structure ([…] Å), SPR, MS of co-purified ligand; GTP turnover on purified complex; EC50 from cell-based cAMP Glo-Sensor assay. Details: GPR3–Gs–scFv16 complex; with Gs heterotrimer (scFv16-stabilised).
Target sequence in this assay (P46089 whole entry): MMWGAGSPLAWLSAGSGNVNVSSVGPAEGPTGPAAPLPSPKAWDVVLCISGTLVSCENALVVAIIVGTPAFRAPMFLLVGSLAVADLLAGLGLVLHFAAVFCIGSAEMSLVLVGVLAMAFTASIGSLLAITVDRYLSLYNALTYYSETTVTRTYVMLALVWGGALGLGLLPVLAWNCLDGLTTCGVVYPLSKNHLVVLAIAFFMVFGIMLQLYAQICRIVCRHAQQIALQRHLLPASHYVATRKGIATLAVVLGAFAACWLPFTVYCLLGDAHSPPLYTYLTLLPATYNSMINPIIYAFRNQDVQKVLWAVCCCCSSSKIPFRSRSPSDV
Target sequence in this assay (P63092 2-394 partner): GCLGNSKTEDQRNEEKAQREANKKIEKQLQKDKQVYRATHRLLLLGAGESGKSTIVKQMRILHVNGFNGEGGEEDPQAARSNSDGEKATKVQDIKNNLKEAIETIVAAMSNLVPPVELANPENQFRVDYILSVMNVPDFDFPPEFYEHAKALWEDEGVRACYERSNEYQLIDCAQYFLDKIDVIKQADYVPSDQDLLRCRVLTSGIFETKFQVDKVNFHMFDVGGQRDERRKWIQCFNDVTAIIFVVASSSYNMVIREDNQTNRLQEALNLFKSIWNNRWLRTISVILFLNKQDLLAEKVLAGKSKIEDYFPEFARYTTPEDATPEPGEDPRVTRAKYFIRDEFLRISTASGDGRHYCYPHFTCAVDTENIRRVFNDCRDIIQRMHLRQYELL
Target sequence in this assay (P62873 2-340 partner): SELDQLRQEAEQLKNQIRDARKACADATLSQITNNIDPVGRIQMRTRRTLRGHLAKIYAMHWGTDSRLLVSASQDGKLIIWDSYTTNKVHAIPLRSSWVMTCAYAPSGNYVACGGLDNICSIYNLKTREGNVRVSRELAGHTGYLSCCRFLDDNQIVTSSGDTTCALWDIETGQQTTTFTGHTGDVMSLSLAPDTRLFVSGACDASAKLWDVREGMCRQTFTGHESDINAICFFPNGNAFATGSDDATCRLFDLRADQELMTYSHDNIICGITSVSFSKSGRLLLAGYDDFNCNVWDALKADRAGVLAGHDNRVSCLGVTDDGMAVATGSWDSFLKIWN
Target sequence in this assay (P59768 2-68 partner): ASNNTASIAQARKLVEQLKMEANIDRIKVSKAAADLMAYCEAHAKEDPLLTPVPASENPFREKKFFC
Assay [2] concerns the target T1, GPR3. In words: cell-based cAMP Glo-Sensor assay (no significant activity in purified GTP turnover assay).
Target sequence in this assay (P46089 whole entry): as the sequence (P46089 whole entry) above

As usually defined, the EC50 is the concentration that produces a half-maximal response.

`CCCCCCCC/C=C\CCCCCCCC(=O)NCCO` [OEA, oleoylethanolamide]: in assay [1], the midpoint of the response, the EC50, lay at 2.5 µM.

The compound `CCCCCCCC/C=C\CCCCCCCC(N)=O` [oleamide] registered an EC50 in assay [2] of 5.6 µM.

The values above are taken from publication PMC10907609, “Structural and functional characterization of the endogenous agonist for orphan receptor GPR3” (Cell Research, 2024).
